Results: US20210214758A1, “METHODS AND TOOLS FOR DETERMINING CLONAL RELATEDNESS AND PREDICTING CLONAL TRAITS” (priority 2018, published 2021)

Tested on: Klebsiella isolates
Assay: Antibiotic susceptibility of Klebsiella clinical isolates per 7-SNP clonotype (Lookup Table 1; disk diffusion)
Format: cell-based, Klebsiella spp.
Procedure: In further embodiments, the Lookup Table is Lookup Table 1. The information contained in Lookup Table 1 below was obtained from urine specimens from patients with Klebsiella infections from several clinics within different regions of the United States. CT=clonotypes determined using a 7-SNP combination: phoE54; rpoB130; infB279; mdh315; phoE336; phoE354; and mdh429.
Next, antibiotic resistance was determined for all 387 Klebsiella isolates in the discovery set. Antibiotic testing was carried out according to the standard disk diffusion method as described in the Clinical and Laboratory Standards Institute (M100 Performance Standards for Antimicrobial Susceptibility Testing, 27th Edition, 2017). […] Since almost all Klebsiella isolates are known to be resistant to AMP and sensitive to IMI, TET is not used for treatment of urinary tract infections, and ESBL production is partially reflected in resistance to CTR, these antibiotics were not included for further analysis.
To aid in clinical decision-making and to translate clonotype information to treatment selection, Lookup Table 1 was generated. […] The information contained in Lookup Table 1 was obtained from urine specimens from patients with Klebsiella infections from several clinics within different regions of the United States. Indications of allowance or non-recommendation were determined based on a 20% resistance threshold to the indicated antibiotic; i.e., the antibiotic is recommended when more than 80% of the tested isolates within the indicated clonotype were susceptible to the indicated antibiotic, and was cautioned against when less than 80% of the isolates were susceptible to the antibiotic.

Measured: susceptibility, %

CN(C)[C@@H]1C(O)=C(C(N)=O)C(=O)[C@@]2(O)C(O)=C3C(=O)c4c(O)cccc4[C@@](C)(O)[C@H]3C[C@@H]12 [TET, tetracycline]
100%: CT 100 | CT 110 | CT 141 | CT 160 | CT 231 | CT 240 | CT 241 | CT 371 | CT 411 | CT 451 | CT 510 | CT 511 | CT 531 | CT 571 | CT 630 | CT 670 | CT 751 | CT 771
91%: CT 170
83%: CT 200 | CT 201 | CT 251 | CT 350 | CT 450 | CT 650
88%: CT 130 | CT 211 | CT 301
82%: CT Any Klebsiella spp.
92%: CT 651
93%: CT 000 | CT 310 | CT 551
90%: CT 111
81%: CT 171
75%: CT 151 | CT 331 | CT 370 | CT 530 | CT 550 | CT 570
79%: CT 271 | CT 730
52%: CT 131
50%: CT 040
76%: CT 050 | CT 210
73%: CT 011
86%: CT 351
0%: CT 001 | CT 230 | CT 300
67%: CT 010 | CT 031 | CT 611 | CT 710
95%: CT 750
85%: CT 051 | CT 250 | CT 731
80%: CT 071 | CT 150 | CT 311 | CT 330

amoxicillin/clavulanate [AMC]
90%: CT 050 | CT 051 | CT 111 | CT 211
96%: CT 170 | CT 271 | CT 301
95%: CT 330 | CT 750
60%: CT 730
69%: CT 131 | CT 200
93%: CT 251 | CT 530
50%: CT 551
89%: CT 201
98%: CT 130 | CT 731
87%: CT 150 | CT Any Klebsiella spp.
67%: CT 031
0%: CT 240
100%: CT 001 | CT 010 | CT 110 | CT 141 | CT 160 | CT 230 | CT 231 | CT 241 | CT 250 | CT 300 | CT 370 | CT 411 | CT 450 | CT 451 | CT 510 | CT 511 | CT 571 | CT 611 | CT 630 | CT 670 | CT 710 | CT 751 | CT 771
91%: CT 011 | CT 650
71%: CT 210
75%: CT 040 | CT 371 | CT 570
83%: CT 350 | CT 531
80%: CT 071 | CT 310 | CT 311
86%: CT 100 | CT 331 | CT 550
78%: CT 151
92%: CT 000 | CT 171 | CT 351 | CT 651

C[C@@H](O)[C@H]1C(=O)N2C(C(=O)O)=C(SCCN=CN)C[C@H]12 [IMI, imipenem]
75%: CT 040 | CT 551
99%: CT 150 | CT Any Klebsiella spp.
96%: CT 170
97%: CT 171
100%: CT 000 | CT 001 | CT 010 | CT 011 | CT 050 | CT 051 | CT 071 | CT 100 | CT 110 | CT 111 | CT 130 | CT 141 | CT 151 | CT 160 | CT 200 | CT 201 | CT 210 | CT 211 | CT 230 | CT 231 | CT 240 | CT 241 | CT 250 | CT 251 | CT 271 | CT 300 | CT 301 | CT 310 | CT 311 | CT 330 | CT 331 | CT 350 | CT 351 | CT 370 | CT 371 | CT 411 | CT 450 | CT 451 | CT 510 | CT 511 | CT 530 | CT 531 | CT 570 | CT 571 | CT 611 | CT 630 | CT 650 | CT 651 | CT 670 | CT 710 | CT 731 | CT 750 | CT 751 | CT 771
98%: CT 131 | CT 550 | CT 730
67%: CT 031
